Results on seven molecules are retold here after patent US6143763A, “Carbostyril derivatives” (D. Western Therapeutics Institiute, priority 1995, dated 2000).

Assay [1] has as its target T1, cGMP-inhibited cAMP phosphodiesterase (PDE3) (Homo sapiens, UniProt Q14432).
T1 construct: made in house; host or cells: insect cell Sf9, baculovirus expression system
The experiment in a line: cGMP-inhibited cAMP phosphodiesterase (PDE3) inhibitory activity. The class given is biochemical. To be noted: 0.4 μM [8-3H]cAMP, pH 8.0, 30° C., 15 minutes; recombinant enzyme from Sf9; read-out: PDE inhibitory activity IC50.

For assay [2], the system named is platelet aggregation (collagen). The experiment in a line: Platelet aggregation inhibitory activity, collagen-induced (Born's turbidimetry, rabbit PRP). In kind it is cell-based, male rabbit (NZW). To be noted: Oryctolagus cuniculus, collagen 20 μg/ml final, 37° C. The protocol:
(§1) Pharmacological Experiment 1 Platelet aggregation inhibitory activity
(§2) (1) Preparation of platelet rich plasma (PRP):
(§3) The blood was collected from the carotid of a male rabbit without anesthesia (NZW species, body weight; 2-3 kg) with mixing thereof with 1/10 volume of citric acid. The blood thus obtained was separated and put into plastic test tubes (each about 7 ml), and centrifuged at 900 rpm for 15 minutes at room temperature to give a turbid supernatant as a platelet rich plasma (PRP). The residue from which PRP is separated was centrifuged at 3000 rpm for 10 minutes, and the supernatant was collected as a platelet poor plasma (PPP). The PRP was diluted with PPP so that the concentration thereof was adjusted to […], and used in the platelet aggregation inhibitory activity test.
(§4) (2) Method for platelet aggregation inhibitory activity test:
(§5) The platelet aggregation was tested according to Born's turbidimetry. That is, a test compound was dissolved in dimethylformamide, and the test compound solution (1 μl) thus obtained was put into a cuvette, and thereto was further added PRP (200 μl). Immediately thereafter, the cuvette was set into an apparatus for determining platelet aggregation activity, PAM-8T (manufactured by Mevanix Inc.), and the mixture was incubated at 37° C. Precisely three minutes thereafter, a solution of adenosine diphosphate (ADP, PA test ADP [MCM], purchased by MC Medical Ltd.) in physiological saline solution or a collagen solution (Collagenreagent Horm, purchased by MC Medical Ltd.) (20 μl) was added thereto. The final concentration of the ADP solution or the collagen solution was 7.5 μM or 20 μg/ml, respectively.
(§6) The maximum aggregation rate and the aggregation inhibitory rate were calculated by the following equations. [formula]
(§7) IC50, which is a concentration of the test compound being required to inhibit the platelet aggregation reaction by 50%, was determined from the aggregation inhibitory rates at two different concentrations of a test compound.

Assay [3] deals with death induced by pulmonary infarction in mice. Description: Antithrombotic activity: inhibition of death by collagen-induced pulmonary infarction in mice. In kind it is in vivo, male ICR mice. The following applies: Mus musculus, 1 h; 30 mg/kg oral, 10 minutes before i.v. collagen; lethality in an hour; read-out: Pulmonary infarction inhibitory activity. An excerpt: Pharmacological Experiment 2 Antithrombotic activity
Antithrombotic activity of the test compounds was estimated by an inhibitory activity of the test compound by oral administration against death induced by pulmonary infarction in mice which was introduced by intravenous administration of collagen (pulmonary infarction inhibitory activity).
Male ICR mice (5-week old, body weight; about 25 g) was fasted overnight, and separated into groups (15 mice per each group) and numbered. A test compound solution, which was prepared by suspending a test compound in 1% hydroxypropylmethyl cellulose 2910 TC-5 (HPMC, manufactured by Shin-etsu Chemical Co., Ltd.), was orally administered to the mice, and 10 minutes thereafter, a collagen solution (the method for preparation thereof and a dose thereof are explained hereafter) was injected to the mice at the tail vein at the constant rate. The lethality of the mice was determined by the number of mice which were died in an hour after the administration of collagen solution. The antithrombotic activity of the test compound was estimated by the inhibitory rate (%) of the lethality of the mice. The collagen solution was prepared by dissolving collagen (Type III, manufactured by Sigma Chemical Ltd.) in 0.05 M acetic acid solution containing 2 mM calcium chloride and 5% glucose at 4° C. so that the final concentration of collagen was adjusted to 2.5 mg/ml, and then the pH value thereof was adjusted to pH 7.4 with sodium hydroxide the day before the experiment. The collagen solution was incubated with stirring at 37° C. for two hours, and then further stirred at room temperature overnight. Just before the experiment, the pH value of the collagen solution was adjusted again to pH 7.4. The amount of the collagen solution which was injected at the tail vein was previously determined so that the lethality by pulmonary infarction induced thereby became about 75%.

The test system of assay [4] is platelet aggregation (ADP). Description: Platelet aggregation inhibitory activity, ADP-induced (Born's turbidimetry, rabbit PRP). In kind it is cell-based, male rabbit (NZW). To be noted: Oryctolagus cuniculus, ADP 7.5 μM final, 37° C. The protocol:
as §1, §2, §3, §4, §5, §6, §7

Assay [5] concerns left common carotid artery injured by balloon. The experiment in a line: Intima thickening inhibitory activity after balloon injury (3H-thymidine in carotid artery). In kind it is in vivo, male SD rats. The following applies: Rattus norvegicus, oral. The protocol: Pharmacological Experiment 3 Intima thickening inhibitory activity
Male SD rats (6-week old) were separated into groups (8 rats per each group) and numbered. A test compound solution, which was prepared by suspending a test compound in 1% hydroxypropylmethyl cellulose 2910 TC-5 (HPMC, manufactured by Shin-etsu Chemical Co., Ltd.) was orally administered to the rats. In the control group, 1% HPMC solution was orally administered instead of the test compound solution. One or two hours thereafter, two french balloon catheters (manufactured by Baxter Travenol Inc.) were inserted into the left common carotid artery of the rats, and the artery was injured by abrading five times with a balloon. The day of balloon abrasion was considered as Day 0. On the following day (Day 1), a test compound was orally administered to the rats two times a day (in the morning and in the evening). On Day 2, 1.48 MBq/ml of ^3 H-thymidine (dose: 5 ml/kg, manufactured by NEN Research Products, Ltd.) was injected at the tail vein of the rats about one hour after the administration of the test compound so that the time after the balloon injury was fixed to the same in each rat. Precisely 45 minutes after the injection of ^3 H-thymidine at the tail veil, the common carotid artery of the rats was taken out.
In the test compound-treated group, only the left common carotid artery which was injured by balloon was taken out, and in the control group, both the left and right common carotid arteries were taken out. The common carotid artery thus obtained was cut to pieces of exact 1 cm long, and the unnecessary portions such as the outer membrane or the nerves were completely removed. The common carotid artery was put into a glass vial, and thereto was added a 0.5 N sodium hydroxide (0.5 ml), and the mixture was incubated at 37° C. overnight to be solubilized. The mixture was neutralized with a 5 N hydrochloric acid (0.05 ml), and thereto was further added an aqueous hydrogen peroxide solution (0.1 ml). Aquasol II (10 ml, manufactured by Du Pont Co.) was added thereto, and the mixture was well stirred and then allowed to stand for 30 minutes. The radioactivity of tritium in the mixture was counted by liquid scintillation counter. The intima thickening inhibitory activity of the test compound was calculated by the following equation. [formula] L (c): The amount of tritium in the left common carotid artery in the control group (dpm)
R (c): The amount of tritium in the right common carotid artery in the control group (dpm)
L: The amount of tritium in the left common carotid artery in the test compound-treated group (dpm)

T1 sequence (Q14432 whole entry): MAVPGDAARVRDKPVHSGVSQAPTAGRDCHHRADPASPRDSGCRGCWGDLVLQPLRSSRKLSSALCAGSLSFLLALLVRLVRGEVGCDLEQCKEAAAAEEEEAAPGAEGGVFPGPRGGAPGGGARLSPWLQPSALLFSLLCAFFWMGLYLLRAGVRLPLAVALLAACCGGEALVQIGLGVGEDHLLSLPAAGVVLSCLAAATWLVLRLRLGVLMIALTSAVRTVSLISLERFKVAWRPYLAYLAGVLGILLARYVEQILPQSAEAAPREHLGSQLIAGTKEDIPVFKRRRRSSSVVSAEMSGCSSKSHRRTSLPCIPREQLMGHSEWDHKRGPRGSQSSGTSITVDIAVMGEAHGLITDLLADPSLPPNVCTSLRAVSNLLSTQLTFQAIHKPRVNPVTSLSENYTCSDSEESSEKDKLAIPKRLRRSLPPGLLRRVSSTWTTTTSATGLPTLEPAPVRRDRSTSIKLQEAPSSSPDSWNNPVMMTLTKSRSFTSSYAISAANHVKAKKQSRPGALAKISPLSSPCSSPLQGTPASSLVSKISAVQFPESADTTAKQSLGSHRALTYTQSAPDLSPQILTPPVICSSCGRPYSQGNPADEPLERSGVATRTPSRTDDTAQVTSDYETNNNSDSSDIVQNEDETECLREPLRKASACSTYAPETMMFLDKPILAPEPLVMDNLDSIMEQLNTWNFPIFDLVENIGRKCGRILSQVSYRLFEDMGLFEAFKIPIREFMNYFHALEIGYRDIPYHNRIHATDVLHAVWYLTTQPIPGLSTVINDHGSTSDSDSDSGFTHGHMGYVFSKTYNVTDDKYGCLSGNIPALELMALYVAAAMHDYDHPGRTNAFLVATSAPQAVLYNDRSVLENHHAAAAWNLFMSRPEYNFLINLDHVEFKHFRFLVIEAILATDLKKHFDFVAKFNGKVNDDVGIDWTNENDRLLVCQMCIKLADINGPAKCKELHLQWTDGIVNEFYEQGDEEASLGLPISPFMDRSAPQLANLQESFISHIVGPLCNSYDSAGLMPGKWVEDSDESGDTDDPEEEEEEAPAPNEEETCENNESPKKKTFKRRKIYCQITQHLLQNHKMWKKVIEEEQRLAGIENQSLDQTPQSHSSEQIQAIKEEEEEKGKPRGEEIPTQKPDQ

As a reminder, the IC50 is the concentration needed to halve the response being measured. For `O=C(NCCCOc1ccc2[nH]c(=O)ccc2c1)N(C1CC1)[C@@H]1CCCC[C@H]1OCCCO` [Ex. 17, (R,R)-(-)-6-{3-[3-[trans-2-(3-hydroxypropoxy)cyclohexyl]-3-cyclopropylureido]propoxy}carbostyril], the IC50 in assay [1] amounted to 60.8 nM; in assay [2], 2390 nM; in assay [4], 140 nM. The inhibition in vivo at 30 mg/kg in assay [3] amounted to 100%; in assay [5], 16%.
Take `CN(CCCOc1ccc2[nH]c(=O)ccc2c1)C(=O)N(C)C1CCCCC1` [Ex. 12, 6-[3-(1,3-dimethyl-3-cyclohexylureido)propoxy]carbostyril]: the values for the IC50 in assay [1], in assay [2] and in assay [4] were 197 nM, 20500 nM and 31600 nM, respectively. Also, the inhibition in vivo at 30 mg/kg in assay [3] was determined as 100%; in assay [5] it was 21.1%.
The matching figures for `O=C(NCCCOc1cc(F)c2[nH]c(=O)ccc2c1)N(C1CC1)[C@@H]1CCCC[C@H]1O` (relative stereo) [Ex. 26]: 74.6 nM, 3030 nM, 450 nM, 85% and 16%.
As for `O=C(NCCCOc1ccc2[nH]c(=O)ccc2c1)N(C1CC1)[C@@H]1CCCC[C@H]1O` [Ex. 9, (R,R)-(-)-6-{3-[3-(trans-2-hydroxycyclohexyl)-3-cyclopropylureido]propoxy}carbostyril], the IC50 worked out at 93 nM in assay [1], 2000 nM in assay [2] and 1900 nM in assay [4]. The inhibition in vivo at 30 mg/kg in assay [3] worked out at 100%. The inhibition in vivo at 10 mg/kg in assay [5] (dose 10 mg/kg) worked out at 26.8%.
For `CN(NC(=O)NCCCOc1ccc2[nH]c(=O)ccc2c1)C1CCCCC1` [Ex. 28], the IC50 in assay [1] stood at 0.826 nM; in assay [2], 100 nM; in assay [4], 110 nM. The inhibition in vivo at 30 mg/kg came out at 100% in assay [3] and 27.8% in assay [5].
The like results for `CCC(O)CN(C(=O)NCCCOc1ccc2[nH]c(=O)ccc2c1)C1CCCCC1` (centres unmarked) [Ex. 10] were, in that order, 24.3 nM, 300 nM, 400 nM, 74% and 34.2%.
The matching figures for `O=C(NCCCOc1ccc2nc(O)ccc2c1)N(C1CC1)[C@H]1CCCC[C@@H]1O` [Ex. 8, (S,S)-(+)-6-{3-[3-(2-Hydroxycyclohexyl)-3-cyclopropylureido]propoxy}-carbostyril]: 113 nM, 2000 nM, 2100 nM, 100% and 13.3%.
